Laboratory results from patent US8901312B2, “Cyclic compound, method for producing cyclic compound, and method for modifying biological molecule” (JNC Corporation, priority 2010, dated 2014).
Where two headings read alike, the source gives them in different places.

Assays:
[1] = test system: azido-glycoconjugates on the surface of HEK293 cells; assay: Fluorescence labeling of azido-glycoconjugates on the surface of living cells; type: cell-based
HEK293 cells = assay: Cytotoxicity assay in living cells; type: cell-based; settings: 0 to 80 μM, incubation overnight
Description: Finally, cytotoxicity assay of diyne 3 was performed in living cells. HEK293 cells were incubated and diyne 3 was added to the cells in a concentration of 0 to 80 μM, followed by incubation overnight. Morphological images of the cells after incubation, which were taken under a phase-contrast microscope and visualized with Adobe Photoshop CS2, are shown in FIG. 10.

[2] = test system: azido-HaloTag protein (GST-HaloTag protein on GSH-Sepharose resin); assay: Fluorescence labeling of azido-HaloTag protein by SPDC reaction, SDS-PAGE fluorescence imaging; type: biochemical

Row | Structure (SMILES) | fluorescence labeling of cell surface azido-glycoconjugates (result in words) [1] | cytotoxicity (cell morphology, phase-contrast microscope) (HEK293 cells) | reaction time at which labeling efficiency became maximum ([1]; 40 μM diyne 3, HEK293 cells with azido-glycoconjugates, 0 to 48 minutes) | fluorescence labeling of cell surface azido-glycoconjugates (result in words) ([1]; HEK293 cells cultured with Ac4ManNAz) | fluorescence labeling efficiency of azido-HaloTag protein ([2]; sequential SPDC reaction: diyne 3, wash, then TESRA-PEO3-azide (9)) | total labeling efficiency of TESRA-labeled HaloTag protein ([2]; simultaneous SPDC reaction with TESRA-PEO3-azide (9), relative to TESRA-HaloTag ligand (10) labeling taken as almost 100%) [%]
1 | O=C(NCCNC(=S)Nc1ccc2c(c1)C(=O)OC21c2ccc(O)cc2Oc2cc(O)ccc21)OC1Cc2ccccc2C#Cc2ccccc21 (stereo not drawn) [monoyne 22, 1-[2-{(11,12-didehydro-5,6-dihydrodibenzo[a,e]cycloocten-5-yl)oxycarbonylamino}ethyl]-3-(5-fluoresceinyl)thiourea] | substantial difference in fluorescence labeling efficiency between the SPDC reaction and the single click reaction was hardly observed |  |  |  |  | 
2 | C1#Cc2ccccc2C#Cc2ccccc21 [diyne 3, sym-dibenzo-1,5-cyclooctadiene-3,7-diyne] |  | did not show cytotoxicity | approximately 20 minutes | a reliable fluorescence signal was detected | approximately 45% | ~40
